Where a chain is given by its changes, count along the chain named. Active and inactive are the calls of the source. The rule behind the calls is not given here.
How the values were obtained:
[1] = test system: T1, General amino-acid permease GAP1 (Saccharomyces cerevisiae), P19145 [A385C]; experiment: Induction of yeast Gap1 A385C mutant-mediated amino acid uptake at 2 mM in presence of 10 mM MTSEA treated before compound addition
T1 sequence (whole entry): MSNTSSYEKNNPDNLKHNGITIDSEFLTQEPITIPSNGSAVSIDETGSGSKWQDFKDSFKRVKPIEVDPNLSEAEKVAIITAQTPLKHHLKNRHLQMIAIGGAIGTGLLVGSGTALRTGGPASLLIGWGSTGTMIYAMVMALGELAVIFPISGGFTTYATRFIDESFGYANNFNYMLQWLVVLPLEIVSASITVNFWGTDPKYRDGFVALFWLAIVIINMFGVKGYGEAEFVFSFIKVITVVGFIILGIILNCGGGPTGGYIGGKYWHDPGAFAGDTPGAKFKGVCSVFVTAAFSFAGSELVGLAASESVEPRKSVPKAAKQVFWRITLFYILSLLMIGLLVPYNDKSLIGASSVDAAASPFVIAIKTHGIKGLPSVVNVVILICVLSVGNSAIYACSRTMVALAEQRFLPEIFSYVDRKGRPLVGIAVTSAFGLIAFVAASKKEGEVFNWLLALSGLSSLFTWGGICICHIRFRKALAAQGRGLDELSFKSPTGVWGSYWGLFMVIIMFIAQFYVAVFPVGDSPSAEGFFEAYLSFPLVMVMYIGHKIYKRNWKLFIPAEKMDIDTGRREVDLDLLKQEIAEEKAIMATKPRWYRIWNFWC

[2] = test system: General amino-acid permease GAP1 (Saccharomyces cerevisiae), P19145 [S392C]; experiment: Inhibition of yeast Gap1 S392C mutant-mediated trehalose activation at 10 mM
Chain of General amino-acid permease GAP1 (Saccharomyces cerevisiae), P19145 [S392C] (P19145 whole entry S392C): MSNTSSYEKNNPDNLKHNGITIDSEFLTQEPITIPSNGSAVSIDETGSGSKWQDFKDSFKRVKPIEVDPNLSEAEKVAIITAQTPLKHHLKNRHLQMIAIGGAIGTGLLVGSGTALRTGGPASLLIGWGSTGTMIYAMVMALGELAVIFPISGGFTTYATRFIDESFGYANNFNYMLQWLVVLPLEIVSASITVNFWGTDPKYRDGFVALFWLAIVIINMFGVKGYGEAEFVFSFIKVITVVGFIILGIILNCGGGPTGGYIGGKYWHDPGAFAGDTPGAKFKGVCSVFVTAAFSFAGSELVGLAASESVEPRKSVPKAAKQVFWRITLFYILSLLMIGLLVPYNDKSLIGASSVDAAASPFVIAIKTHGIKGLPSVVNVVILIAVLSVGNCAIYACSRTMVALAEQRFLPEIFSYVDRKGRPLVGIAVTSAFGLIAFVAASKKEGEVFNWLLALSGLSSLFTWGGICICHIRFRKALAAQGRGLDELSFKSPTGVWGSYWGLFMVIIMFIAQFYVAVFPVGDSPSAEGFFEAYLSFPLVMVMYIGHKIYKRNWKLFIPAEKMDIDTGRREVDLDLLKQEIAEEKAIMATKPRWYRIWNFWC

[3] = test system: T2, General amino-acid permease GAP1 (Saccharomyces cerevisiae), P19145 [C397C]; experiment: Induction of yeast Gap1 C397C mutant-mediated trehalose activation at 10 mM
T2 sequence (whole entry): T1 sequence (whole entry) with C385A

[4] = test system: General amino-acid permease GAP1 (Saccharomyces cerevisiae), P19145 [V389C]; experiment: Induction of yeast Gap1 V389C mutant-mediated trehalose activation at 2 mM in presence of 10 mM MTSEA treated before compound addition
Chain of General amino-acid permease GAP1 (Saccharomyces cerevisiae), P19145 [V389C] (P19145 whole entry V389C): as the sequence (P19145 whole entry S392C) above, with V389C, C392S counted along it

[5] = test system: T3, General amino-acid permease GAP1 (Saccharomyces cerevisiae), P19145 [I382C]; experiment: Induction of yeast Gap1 I382C mutant-mediated amino acid uptake at 2 mM in presence of 10 mM MTSEA treated before compound addition
T3 sequence (whole entry): T1 sequence (whole entry) with I382C, C385A

[6] = test system: T4, General amino-acid permease GAP1 (Saccharomyces cerevisiae), P19145 [L387C]; experiment: Induction of yeast Gap1 L387C mutant-mediated amino acid uptake at 2 mM in presence of 10 mM MTSEA treated before compound addition
T4 sequence (whole entry): T1 sequence (whole entry) with C385A, L387C

Activity [1]: Active | inhibition [2]: Active | Activity [3]: inactive | inhibition [4]: inactive | Activity [5]: Active | Activity [6]: Active
SMILES: NC(=O)NCCC[C@H](N)C(=O)O
